Data: patent US10195185B2, “3-(1H-imidazo[4,5-C]pyridin-2-yl)-1H-pyrazolo[4,3-B]pyridines and therapeutic uses thereof” (Samumed, LLC, priority 2015, dated 2019)

How the values were obtained:
[1] = tested on: primary human mesenchymal stem cells (hMSCs); assay: Induction of chondrogenesis in hMSCs (nodule area, Rhodamine B / Nile Red); type: cell-based; settings: TGF-β3 as positive control; for Emax: read-out: Max. Activity as % TGF-β3 activity; for EC50: concentration required to induce 50% levels of chondrogenesis, read-out: Conc (nM) of 50% TGF-β3 activity
Description: Representative compounds were screened using primary human mesenchymal stem cells (hMSCs) to determine their ability to induce chondrogenesis (process by which cartilage is developed).
Primary human mesenchymal stem cells (hMSCs) were purchased from Lonza (Walkersville, Md.) and expanded in Mesenchymal Stem Cell Growth Media (Lonza). Cells between passage 3 and 6 were used for the experiments.
Each compound was dissolved in DMSO as a 10 mM stock and used to prepare compound source plates. For the 96 well assay, serial dilution (1:3, 6-point dose-response curves from 2700 nM to 10 nM) and compound transfer was performed using the ECHO 550 (Labcyte, Sunnyvale, Calif.) into 96-well clear bottom assay plates (Greiner Bio-One) with appropriate DMSO backfill for a final DMSO concentration of 0.03%. hMSCs were plated at 20,000 cells/well in 250 μL/well Incomplete Chondrogenic Induction Medium (Lonza; DMEM, dexamethasone, ascorbate, insulin-transferrin-selenium [ITS supplement], gentamycin-amphotericin [GA-1000], sodium pyruvate, proline and L-glutamine). TGF-β3 (10 ng/mL) was used as a positive control for differentiation while negative control wells were treated with 75 nL DMSO for normalization and calculating EC50 values. For the 384 well assay, serial dilution (1:3, 8-point dose-response curves from 5000 nM to 2.2 nM) and compound transfer was performed using the ECHO 550 (Labcyte, Sunnyvale, Calif.) into 384-well clear bottom assay plates (Greiner Bio-One) with appropriate DMSO backfill for a final DMSO concentration of 0.03%. hMSCs were plated at 8,000 cells/well in 80 μL/well Incomplete Chondrogenic Induction Medium (Lonza; DMEM, dexamethasone, ascorbate, insulin-transferrin-selenium [ITS supplement], gentamycin-amphotericin [GA-1000], sodium pyruvate, proline and L-glutamine). TGF-β3 (10 ng/mL) was used as a positive control for differentiation while negative control wells were treated with 25 nL DMSO for normalization and calculating EC50 values. Cells were incubated at 37° C. and 5% CO2 for 6 days. To image chondrogenic nodules, the cells were fixed using 4% formaldehyde (Electron Microscopy Sciences), and stained with 2 μg/mL Rhodamine B (Sigma-Aldrich) and 20 μM Nile Red (Sigma-Aldrich) [Johnson K., et. al, A Stem Cell-Based Approach to Cartilage Repair, Science, (2012), 336(6082), 717-721]. The nodules imaged (25 images per well for 96 well plates and 9 images per well for 384 well plates at 10× magnification) by excitation at 531 nm and emission at 625 nm and quantified using the CellInsight CX5 (Thermo Scientific). Area of nodules in each well was normalized to the average of 3 DMSO treated wells on the same plate using Excel (Microsoft Inc.). The normalized averages (fold change over DMSO) of 2 or 3 replicate wells for each compound concentration were calculated. Due to solubility limitations of some of the compounds, curve fitting was incomplete leading to inaccurate EC50 determinations.
Using TGF-β3 as a positive control, the concentration of representative compounds required to induce 50% levels of chondrogenesis is reported. In addition, the maximum activity of each compound and the respective dose that each compound reached maximum chondrogenesis activity is reported.

[2] = tested on: Primary human fibroblasts derived from IPF patients (LL29 cells) treated with TGF-β1; assay: Inhibition of the fibrotic process: αSMA staining in TGF-β1 treated fibroblasts; type: cell-based; settings: Fibroblast, 96 h, LL29 fibroblasts treated with TGF-β1, 4 days; for inhibition at 10 µM: read-out: percent inhibition in brackets beside EC50 >10 μM
How it was run: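 Potency reflects suppression of TGF-β1-driven αSMA expression in IPF patient fibroblasts over 4 days. Values are EC50s from normalized αSMA-positive cell counts, with % inhibition at 10 μM when EC50 exceeded 10 μM.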

Clc1ccc(-c2nccc3[nH]c(-c4n[nH]c5ccc(-c6cncc(CN7CCCC7)c6)nc45)nc23)s1 [Compound 1049, 3-(4-(5-Chlorothiophen-2-yl)-1H-imidazo[4,5-c]pyridin-2-yl)-5-(5-(pyrrolidin-1-ylmethyl)pyridin-3-yl)-1H-pyrazolo [4,3-b]pyridine]
Emax [1]: 59% | EC50 [1]: 10 nM | EC50 [2]: 1190 nM

CC(C)(C)C(=O)Nc1cncc(-c2ccc3[nH]nc(-c4nc5c(-c6ccc(Cl)s6)nccc5[nH]4)c3n2)c1 [Compound 1043, N-(5-(3-(4-(5-Chlorothiophen-2-yl)-1H-imidazo[4,5-c]pyridin-2-yl)-1H-pyrazolo[4,3-b]pyridin-5-yl)pyridin-3-yl)pivalamide]
Emax [1]: 67% | EC50 [1]: 10 nM | EC50 [2]: > 10000 nM | inhibition at 10 µM [2]: 22%

Cc1cn(-c2nccc3[nH]c(-c4n[nH]c5ccc(-c6cncc(NC(=O)C(C)(C)C)c6)nc45)nc23)cn1 [Compound 204, N-(5-(3-(4-(4-Methyl-1H-imidazol-1-yl)-1H-imidazo[4,5-c]pyridin-2-yl)-1H-pyrazolo[4,3-b]pyridin-5-yl)pyridin-3-yl)pivalamide]
Emax [1]: 70% | EC50 [1]: 30 nM | EC50 [2]: > 10000 nM | inhibition at 10 µM [2]: 8.1%

Fc1ccc(-c2nccc3[nH]c(-c4n[nH]c5ccc(-c6cncc(CN7CCCC7)c6)nc45)nc23)cc1 [Compound 42, 3-(4-(4-Fluorophenyl)-1H-imidazo[4,5-c]pyridin-2-yl)-5-(5-(pyrrolidin-1-ylmethyl)pyridin-3-yl)-1H-pyrazolo[4,3-b]pyridine]
Emax [1]: 39% | EC50 [2]: 2870 nM

CCCCC(=O)Nc1cncc(-c2ccc3[nH]nc(-c4nc5c(-c6ccccn6)nccc5[nH]4)c3n2)c1 [Compound 159, N-(5-(3-(4-(Pyridin-2-yl)-1H-imidazo[4,5-c]pyridin-2-yl)-1H-pyrazolo[4,3-b]pyridin-5-yl)pyridin-3-yl)pentanamide]
Emax [1]: 113% | EC50 [1]: 10 nM | EC50 [2]: 4040 nM

Cc1ccncc1-c1ccc2[nH]nc(-c3nc4c(-c5ccsc5)nccc4[nH]3)c2n1 [Compound 285, 5-(4-Methylpyridin-3-yl)-3-(4-(thiophen-3-yl)-1H-imidazo[4,5-c]pyridin-2-yl)-1H-pyrazolo[4,3-b]pyridine]
Emax [1]: 47% | EC50 [2]: 493 nM

FC1(F)CCN(Cc2cncc(-c3ccc4[nH]nc(-c5nc6c(-c7ccsc7)nccc6[nH]5)c4n3)c2)C1 [Compound 306, 5-(5-((3,3-difluoropyrrolidin-1-yl)methyl)pyridin-3-yl)-3-(4-(thiophen-3-yl)-1H-imidazo[4,5-c]pyridin-2-yl)-1H-pyrazolo[4,3-b]pyridine]
Emax [1]: 53% | EC50 [1]: 100 nM | EC50 [2]: 1240 nM

CC(C)C(=O)Nc1cncc(-c2ccc3[nH]nc(-c4nc5c(N6CCN(C)CC6)nccc5[nH]4)c3n2)c1 [Compound 233, N-(5-(3-(4-(4-Methylpiperazin-1-yl)-1H-imidazo[4,5-c]pyridin-2-yl)-1H-pyrazolo[4,3-b]pyridin-5-yl)pyridin-3-yl)isobutyramide]
Emax [1]: 64% | EC50 [1]: 900 nM | EC50 [2]: > 10000 nM | inhibition at 10 µM [2]: 2.5%

CCNCc1cncc(-c2ccc3[nH]nc(-c4nc5c(-c6ccoc6)nccc5[nH]4)c3n2)c1 [Compound 314, N-((5-(3-(4-(Furan-3-yl)-1H-imidazo[4,5-c]pyridin-2-yl)-1H-pyrazolo[4,3-b]pyridin-5-yl)pyridin-3-yl)methyl)ethanamine]
Emax [1]: 33% | EC50 [2]: > 10000 nM | inhibition at 10 µM [2]: 20.6%

Nc1cncc(-c2ccc3[nH]nc(-c4nc5c(-c6ccccc6F)nccc5[nH]4)c3n2)c1 [Compound 59, 5-(3-(4-(2-Fluorophenyl)-1H-imidazo[4,5-c]pyridin-2-yl)-1H-pyrazolo[4,3-b]pyridin-5-yl)pyridin-3-amine]
Emax [1]: 108% | EC50 [1]: 10 nM | EC50 [2]: > 10000 nM | inhibition at 10 µM [2]: 0%

Cc1cn(-c2nccc3[nH]c(-c4n[nH]c5ccc(-c6cncc(CN7CCCC7)c6)nc45)nc23)cn1 [Compound 210, 3-(4-(4-Methyl-1H-imidazol-1-yl)-1H-imidazo[4,5-c]pyridin-2-yl)-5-(5-(pyrrolidin-1-ylmethyl)pyridin-3-yl)-1H-pyrazolo [4,3-b]pyridine]
Emax [1]: 50% | EC50 [2]: > 10000 nM | inhibition at 10 µM [2]: 2.9%

c1cncc(-c2ccc3[nH]nc(-c4nc5cnccc5[nH]4)c3n2)c1 [Compound 256, 3-(1H-Imidazo[4,5-c]pyridin-2-yl)-5-(pyridin-3-yl)-1H-pyrazolo[4,3-b]pyridine]
Emax [1]: 55% | EC50 [1]: 30 nM | EC50 [2]: > 10000 nM | inhibition at 10 µM [2]: 0%

Cc1cn(-c2nccc3[nH]c(-c4n[nH]c5ccc(-c6cncc(NC(=O)CC(C)C)c6)nc45)nc23)cn1 [Compound 198]
Emax [1]: 69% | EC50 [1]: 30 nM | EC50 [2]: > 10000 nM | inhibition at 10 µM [2]: 4.5%

CN(C)Cc1cncc(-c2ccc3[nH]nc(-c4nc5c(N6CCCCC6)nccc5[nH]4)c3n2)c1 [Compound 181, N,N-Dimethyl-1-(5-(3-(4-(piperidin-1-yl)-1H-imidazo[4,5-c]pyridin-2-yl)-1H-pyrazolo [4,3-b]pyridin-5-yl)pyridin-3-yl)methanamine]
Emax [1]: 43% | EC50 [2]: 4050 nM

Fc1ccc(-c2nccc3[nH]c(-c4n[nH]c5ccc(-c6cncnc6)nc45)nc23)cc1 [Compound 55, 3-(4-(4-Fluorophenyl)-1H-imidazo[4,5-c]pyridin-2-yl)-5-(pyrimidin-5-yl)-1H-pyrazolo[4,3-b]pyridine]
Emax [1]: 139% | EC50 [1]: 900 nM | EC50 [2]: 2180 nM

CC(C)C(=O)Nc1cncc(-c2ccc3[nH]nc(-c4nc5c(-c6ccccc6F)nccc5[nH]4)c3n2)c1 [Compound 65, N-(5-(3-(4-(2-fluorophenyl)-1H-imidazo[4,5-c]pyridin-2-yl)-1H-pyrazolo [4,3-b]pyridin-5-yl)pyridin-3-yl)isobutyramide]
Emax [1]: 140% | EC50 [1]: 10 nM | EC50 [2]: > 10000 nM | inhibition at 10 µM [2]: 4%

CN1CCN(c2nccc3[nH]c(-c4n[nH]c5ccc(-c6cncc(N)c6)nc45)nc23)CC1 [Compound 227, 5-(3-(4-(4-Methylpiperazin-1-yl)-1H-imidazo[4,5-c]pyridin-2-yl)-1H-pyrazolo[4,3-b]pyridin-5-yl)pyridin-3-amine]
Emax [1]: 135% | EC50 [1]: 100 nM | EC50 [2]: > 10000 nM | inhibition at 10 µM [2]: 22.5%

CCCC(=O)Nc1cncc(-c2ccc3[nH]nc(-c4nc5c(-c6ccsc6)nccc5[nH]4)c3n2)c1 [Compound 297, N-(5-(3-(4-(Thiophen-3-yl)-1H-imidazo[4,5-c]pyridin-2-yl)-1H-pyrazolo [4,3-b]pyridin-5-yl)pyridin-3-yl)butyramide]
Emax [1]: 358% | EC50 [1]: 7 nM | EC50 [2]: > 10000 nM | inhibition at 10 µM [2]: 16.1%

Cc1ncc(-c2ccc3[nH]nc(-c4nc5c(-c6cccc(F)c6)nccc5[nH]4)c3n2)s1 [Compound 1126, 5-(3-(4-(3-Fluorophenyl)-1H-imidazo[4,5-c]pyridin-2-yl)-1H-pyrazolo[4,3-b]pyridin-5-yl)-2-methylthiazole]
Emax [1]: 43% | EC50 [2]: 203 nM

O=C(Nc1cncc(-c2ccc3[nH]nc(-c4nc5c(-c6ccc(F)cc6)nccc5[nH]4)c3n2)c1)C1CCC1 [Compound 49, N-(5-(3-(4-(4-Fluorophenyl)-1H-imidazo[4,5-c]pyridin-2-yl)-1H-pyrazolo [4,3-b]pyridin-5-yl)pyridin-3-yl)cyclobutanecarboxamide]
Emax [1]: 45% | EC50 [2]: > 10000 nM | inhibition at 10 µM [2]: 7.5%
